# Patent US7964701B2, “Alpha-fetoprotein peptides” (Albany Medical College, priority 2006, dated 2011)
# Entries after “also recorded” stand apart in the source; their conditions may differ.
# Tests used:
# [1] = tested on: E2-stimulated growth of mouse uterus; conditions: Mesfin et al. / earlier studies; cited from earlier work
# [2] = tested on: E2-stimulated growth of mouse uterus; assay: Immature mouse uterine growth assay; assay type: in vivo; conditions: 1 μg/mouse intraperitoneally
# Source text: The anti-breast cancer activity of the linear and cyclic 8-mer and 9-mer AFP-derived peptides is well-documented using the immature mouse uterine growth assay and the human breast cancer xenograft assay; there is a strong correlation between the results of these two assays. To evaluate peptide-induced inhibition by the peptide of the present invention of estrogen-stimulated proliferation of normal tissue, the immature mouse uterine growth assay was utilized. Briefly, 13-15 day-old Swiss/Webster female mice, 6-8 g in body weight, were distributed into treatment groups of 5 mice per group so that each group contained animals of the same range of body weight. The peptide of the invention was injected i.p., s.c., or p.o. into the mice. One hour later, estradiol (E2) or vehicle control for E2 was injected i.p. Twenty-two hours after the second injection, uteri were harvested, trimmed free of mesenteries, and immediately weighed. The uterine weights were normalized to mouse body weights to compensate for differences in body weight among litters of the same age. Experiments employed a minimum of five mice per group and the mean normalized uterine weight±SE for each group was calculated. Percent growth inhibition in a test group was calculated from normalized uterine wet weights as described below.
# Differences between groups were evaluated, employing the nonparametric Wicoxon ranks sum test. In all cases, growth inhibitions that were greater than 25% were significant at P≦0.05.
# In other experiments, peptide analogs comprising the sequences TOVN SEQ ID NO.: 3) and TPVN (SEQ ID NO.: 2) were assessed for their ability to inhibit E2-stimulated growth of mouse uterus after intraperitoneal and oral administration.
# The ability to inhibit E2-stimulated growth of normal mouse uterus was used as a screening assay for biological activity of AFPep analogs. In general, inhibitory activity≧20% is considered to be biologically significant. Each analog's inhibitory effect on E2-stimulated growth was compared to AFPep (a positive control) and to PGVGQ (SEQ ID NO.: 44)(a negative control). PGVGQ (SEQ ID NO.: 44) (amino acids 478-482 of AFP) is a portion of the primary structure of AFP near to the anti-cancer active site of AFP and is comprised of amino acids (P, V, and G) that are important components of AFPep. A scrambled analog of AFPep was not used because some scrambled peptides retain low biological activity (data not shown). In Table 3, bold letters denote the sequences containing a putative Type I beta-turn, which was postulated to be necessary for antiestrogenic activity.
substance,measurement,setting,value
"MTPVNPG [7-mer peptide earlier reported by Mesfin et al, reference compound]",antiestrogenic activity reported in earlier studies,[1],substantially reduced antiestrogenic properties; also recorded: little antiestrogenic activity
same,"Inhibition ± S.E, % Immature mouse uterine growth Intraperitoneal",[2],18 ± 1%
same,"antiestrogenic activity (inhibition of E2-stimulated uterine growth), in words",[2]; Table 3 discussion,significantly less activity
